{"source": "patent EP4424327A1", "about": "“METHOD OR AGENT WITH HDAC REGULATOR, FOR TREATMENT OF DIABETES AND COMPLICATIONS” (Biozipcode, Inc., priority 2021, dated 2023)", "key": {"STZ-DM mice [1]": {"tested_on": "STZ-DM mice", "assay": "TNF-α immunostaining (DAB staining) of bone marrow, thymus and pancreatic islets (Example 3)", "format": "in vivo, C57BL/6 J mice", "procedure": "In addition, mice in each experimental group were subjected to perfusion fixation, and then dissected to collect the femur, thymus, and pancreas. In the femur, bone tissue was demineralized using a neutral demineralizing solution (10% EDTA solution) to prepare a paraffin block. A paraffin section having a thickness of 3 µm was prepared from the paraffin block using a microtome, and was stained with DAB. As pretreatment for DAB staining, the paraffin section was deparaffinized with xylene and hydrophilized with ethanol, and the antigen was activated using HistoVT one (Nacalai Tesque). Thereafter, DAB staining was performed using TNF-α (abcam)."}, "STZ-DM mice [2]": {"tested_on": "STZ-DM mice", "assay": "Effect of thymectomy on treatment of STZ-DM mice (Example 8)", "format": "in vivo, C57BL/6 J mice", "procedure": "Streptozotocin (150 mg/kg) was tail vein-administered to C57BL/6 J mice (wild type, CLEA Japan, Inc., Osaka) to develop diabetes mellitus. After one month of free feeding, an insulin pellet was subcutaneously administered to these STZ-DM mice to normalize their blood glucose levels. The mice were divided into two groups, for one group of mice, the thymus was removed from the suprasternal fossa (thymectomy group), and for the other group of mice, an incision was made in the suprasternal fossa and closed immediately (control group). Givinostat (Cayman chemical, USA) was orally administered at 2.5 mg/kg to both the thymectomy group and the control group. Givinostat was administered once every three days.\nBlood glucose levels of mice in both groups were measured weekly (FIG. 24). After the end of 8 weeks of treatment, perfusion fixation was performed on both groups of mice to confirm the presence or absence of thymus (FIG. 25)."}, "STZ-DM mice [3]": {"tested_on": "STZ-DM mice", "assay": "Intraperitoneal glucose tolerance test (IPGTT) 12 weeks after start of treatment (Example 3)", "format": "in vivo, C57BL/6 J mice", "settings": "insulin pellet + givinostat compared with blank pellet + givinostat, 1.5 g/kg glucose i.p.", "procedure": "(§1) Blood glucose levels were measured weekly for 12 weeks. In addition, an intraperitoneal glucose tolerance test (IPGTT) was performed on some mice 12 weeks after the start of treatment. After 16 hours of fasting, blood glucose level measurement and blood collection were performed at 0 minutes, 100 µl of a 1.5 g/kg glucose solution was intraperitoneally administered, and blood glucose level measurement and blood collection were performed at 30 minutes, 60 minutes, and 120 minutes, respectively. Serum was collected from the collected blood, and the serum insulin concentration was measured using an ultra-sensitive mouse insulin measurement kit (Morinaga Institute of Biological Science, Inc., Japan). FIG. 15 illustrates the transition of blood glucose, and FIG. 16 illustrates the transition of insulin concentration."}, "STZ-DM mice [4]": {"tested_on": "STZ-DM mice", "assay": "Insulin and glucagon DAB staining of frozen pancreas sections (Example 3)", "format": "in vivo, C57BL/6 J mice", "settings": "givinostat administered simultaneously with blood glucose control (insulin pellet)", "procedure": "12 weeks after the start of treatment, some mice were subjected to perfusion fixation with a 4% PFA solution in 0.1 M PB and harvested pancreatic tissue was immersed overnight in a 15% sucrose solution in 0.1 M PB, and then, 8 um frozen sections were prepared with a cryostat. The frozen sections were washed 3 times with PBS (-) for 10 minutes, reacted in a 0.3% hydrogen peroxide solution (0.3% H2O2 in PBS (-)) for 30 minutes at room temperature to inactivate endogenous peroxidase in the sections, and then washed 3 times for 5 minutes with PBS (-). Thereafter, in order to prevent non-specific reactions, the sections were reacted with 5% normal goat serum in PBS (-) supplemented with 0.3% Triton X and blocked at room temperature for 1 hour. After blocking, the sections were reacted with a primary antibody (anti-insulin antibody: CST Inc. or anti-glucagon antibody: CST Inc.) at 4°C overnight. Thereafter, the sections was washed 3 times with PBS (-) for 5 minutes, reacted in ImmPRESS reagent (Vector laboratory) at room temperature for 30 minutes, and further washed. […] The prepared sections were observed under a microscope, about 5 to 8 pancreatic islets were randomly selected, and the percentage of insulin or glucagon positive cells relative to the size of the pancreatic islets was calculated using Image J software."}, "STZ-DM mice [5]": {"tested_on": "STZ-DM mice", "assay": "Drug treatment of STZ-DM mice (Example 3): weekly blood glucose levels", "format": "in vivo, C57BL/6 J mice", "procedure": "An overview of the procedure is illustrated in FIG. 13. Streptozotocin (150 mg/kg) was tail vein-administered to C57BL/6 J mice (wild type, CLEA Japan, Inc., Osaka) (nonDM) to develop diabetes mellitus. For the STZ-DM mouse, the blood glucose level was normalized by insulin pellet administration, and the blank pellet was administered to a control group. In both the treatment group and the control group, 2.5 mg/kg of givinostat (Cayman chemical, USA) was administered to the tail vein or orally. The insulin pellet or the blank pellet was administered up to 3 days before the start of the givinostat treatment, and the administration of givinostat was started on the day on which it was confirmed that the blood glucose level of the treatment group fell within the normal range on day 0. Note that givinostat was administered once every three days until week 8. In addition, a non-diabetic group (nonDM) in which only a buffer was administered without administering STZ simultaneously with the treatment group, and a non-treated diabetic group (STZ-DM) in which neither blood glucose control nor treatment with givinostat was performed were also observed simultaneously.\nas §1"}, "STZ-DM mice [6]": {"tested_on": "STZ-DM mice", "assay": "Weight of the collected thymus (Example 3)", "format": "in vivo, C57BL/6 J mice", "settings": "givinostat simultaneously with blood glucose control, both oral and intravenous; non-diabetic 37 mg, diabetic 13 mg"}, "db/db mice [7]": {"tested_on": "db/db mice", "assay": "Treatment of db/db mice with HDAC regulator and insulin glargine (Example 5)", "format": "in vivo", "settings": "givinostat 2.5 mg/kg orally daily + insulin glargine s.c. daily (tapered from 10 IU), 8-12 weeks", "procedure": "(§2) Db/db mice were observed from week 6, and the time point at which the blood glucose level exceeded 300 mg/dl was defined as the onset of diabetes mellitus. […] 2 hours after administration of insulin glargine, 2.5 mg/kg of givinostat was orally administered daily to a mouse whose blood glucose level was measured and blood glucose lowering was confirmed. When the blood glucose level before administration of insulin glargine was lower than 200 mg/dl at longer than 8 weeks after the start of treatment, the administration of insulin glargine and givinostat on that day was discontinued. When the blood glucose level on the next day was also below 200 mg/dl, insulin glargine and givinostat were stopped, and then, the blood glucose level was measured weekly until week 4 to determine the diabetic state. […] When hypoglycemia appeared, blood glucose levels were measured 1 hour after intraperitoneal (300 µL) administration of 25% glucose solution, and this operation was repeated when hypoglycemia was still persistent. […] When hypoglycemia was confirmed, the subsequent insulin was adjusted to 1/2 of the previous dose as necessary."}, "NOD mice": {"tested_on": "NOD mice", "assay": "Treatment of diabetes mellitus in NOD mice with HDAC regulator and blood glucose control (Example 4)", "format": "in vivo", "settings": "givinostat 2.5 mg/kg orally daily + insulin glargine s.c. daily (tapered from 10 IU), 8-12 weeks", "procedure": "as §2, with “The treatment was started for NOD” for “Db/db”, “one” for “were observed from”, “after confirmation of” for “6, and the time point at which the blood glucose level exceeded 300 mg/dl was defined as”, “hyperglycemia.” for “diabetes mellitus.”"}, "db/db mice [8]": {"tested_on": "db/db mice", "assay": "Treatment of db/db mice with HDAC regulator and dapagliflozin (Example 6)", "format": "in vivo", "settings": "givinostat 2.5 mg/kg + dapagliflozin 1.0 mg/kg orally daily for 8 weeks, then 4 weeks off treatment", "procedure": "Db/db mice were observed from week 6, and the time point at which the blood glucose level exceeded 300 mg/dl was defined as the onset of diabetes mellitus. In db/db mice with leptin receptor deficiency, 1.0 mg/kg of dapagliflozin, an SGLT inhibitor, and 2.5 mg/kg of givinostat, an HDAC regulator, were orally administered daily for 8 weeks, after which the treatment was discontinued for 4 weeks and terminated."}, "[9]": {"settings": "givinostat simultaneously with blood glucose control (insulin pellet)"}}, "data": [{"smiles": "CCN(CC)Cc1ccc2cc(COC(=O)Nc3ccc(C(=O)NO)cc3)ccc2c1", "note": "[givinostat]", "values": [{"measurement": "TNF-α positive cells in pancreatic islets", "setting": "STZ-DM mice [1]; blank pellet + givinostat treatment (oral) and (intravenous)", "value": "a large amount of TNF-α positive cells migrated to the center of the pancreatic islets"}, {"measurement": "TNF-α positive cells in bone marrow", "setting": "STZ-DM mice [1]; [9]", "value": "TNF-α positive cells decreased to the same extent as the non-diabetic group"}, {"measurement": "TNF-α positive cells in thymus", "setting": "STZ-DM mice [1]; [9]", "value": "TNF-α positive cells decreased to the same extent as the non-diabetic group"}, {"measurement": "TNF-α positive cells in pancreatic islets", "setting": "STZ-DM mice [1]; insulin pellet + givinostat treatment (oral) and (intravenous)", "value": "almost no TNF-α positive cells were observed"}, {"measurement": "blood glucose levels", "setting": "STZ-DM mice [2]; control group without thymectomy, insulin pellet + givinostat 2.5 mg/kg orally once every three days, 8 weeks", "value": "no increase in blood glucose levels was observed"}, {"measurement": "thymus atrophied by diabetes mellitus", "setting": "STZ-DM mice [2]; control group without thymectomy, insulin pellet + givinostat, week 8", "value": "recovered to a normal level"}, {"measurement": "blood glucose level at the end of treatment", "setting": "STZ-DM mice [2]; thymectomy group, insulin pellet + givinostat 2.5 mg/kg orally once every three days, 8 weeks", "value": "about 400 mg/dL"}, {"measurement": "thymus", "setting": "STZ-DM mice [2]; thymectomy group, insulin pellet + givinostat, week 8", "value": "the thymus did not recover even when the treatment was performed"}, {"measurement": "blood glucose levels after IPGTT", "setting": "STZ-DM mice [3]", "value": "early normalization of blood glucose levels"}, {"measurement": "insulin in blood after IPGTT", "setting": "STZ-DM mice [3]", "value": "high blood insulin elevation"}, {"measurement": "area of glucagon positive cells, of the entire pancreatic islets", "setting": "STZ-DM mice [4]; nonDM about 10%, STZ-DM 75%", "value": "about 40%"}, {"measurement": "area of insulin positive cells, relative to nonDM", "setting": "STZ-DM mice [4]; pancreatic islets, 12 weeks", "value": "about 1/2"}, {"measurement": "blood glucose level", "setting": "STZ-DM mice [5]; givinostat 2.5 mg/kg for 8 weeks without insulin pellet (blank pellet)", "value": "the blood glucose level did not decrease even when givinostat was administered for 8 weeks"}, {"measurement": "blood glucose levels", "setting": "STZ-DM mice [5]; insulin pellet + givinostat 2.5 mg/kg (oral or intravenous, once every three days for 8 weeks), start of treatment", "value": "immediately decreased"}, {"measurement": "blood glucose level", "setting": "STZ-DM mice [5]; insulin pellet + givinostat (both orally and intravenously), after discontinuing givinostat after week 9, up to week 12", "value": "the reduction in blood glucose level continued even after discontinuing givinostat after week 9"}, {"measurement": "thymus weight, relative to normal", "setting": "STZ-DM mice [6]", "value": "about 2/3"}, {"measurement": "diabetes mellitus outcome", "setting": "db/db mice [7]", "value": "cured"}, {"measurement": "diabetes mellitus outcome", "setting": "NOD mice", "value": "cured"}, {"measurement": "diabetes mellitus outcome", "setting": "db/db mice [8]", "value": "cured"}]}]}
